Assay results as given in US4876242A, “Human insulin-like growth factor analoges with reduced binding to serum carrier proteins and their production in yeast” (Merck & Co., Inc., priority 1987, dated 1989).
“Also recorded” adds a separate entry of the source.

How the values were obtained:
type I IGF receptor = assay: Inhibition of 125I-hIGF-I binding to human placental membranes (type I IGF receptor binding); conditions: FIG. 6; for IC50: human placental membranes, type I IGF receptor
[1] = molecular target: human serum carrier proteins; assay: Inhibition of 125I-hIGF-I binding to acid stable human serum carrier proteins; conditions: FIG. 7; for IC50: acid stable human carrier proteins
[2] = test system: native binding protein in rat serum; assay: Binding of 125I-labelled peptide to components in normal rat serum (gel chromatography); conditions: for binding to rat serum carrier proteins / native binding protein in rat serum (in words): normal rat serum, FIG. 8
Experimental: ^125 I-labelled analog IGF132 was monitored for the ability to bind components in normal rat serum. When ^125 I-IGF or ^125 I-IGF132 is chromatographed without prior incubation with serum, the radioactivity is eluted in a broad peak which migrates at the position expected for a 7.5 kD peptide (FIG. 8A). After incubation of ^125 I-IGF with rat serum, a radioactive peak appears which elutes at the position expected for a 150 kD protein, and the amount of radioactivity in the free ^125 I-αIGF peak decreases (FIG. 8B). The ^125 I-αIGF bound to the 150 kD species represents 36%±5% of the total ^125 I-IGF-I in the incubation. When the incubation is performed in the presence of 1 μg unlabelled IGF, only one radioactive peak is observed and this corresponds to unbound ^125 I-IGF (FIG. 8B (0)). Thus, under the conditions of this assay, the binding of ^125 I-IGF to the 150 kD species from rat serum is saturable.

3T3 cells = assay: Stimulation of DNA synthesis in 3T3 cells; format: cell-based, mouse; conditions: FIG. 9; for potency in stimulating DNA synthesis relative to normal/wild-type IGF-I: 3T3 cells; for potency in stimulating DNA synthesis relative to wild type IGF-I: mouse 3T3 cells
Text: IGF-I stimulates DNA synthesis in mouse 3T3 cells.

rat adipose tissue = assay: Incorporation of 14C-glucose into lipid in rat adipose tissue in vivo; conditions: FIG. 10 part B
serum carrier proteins = conditions: cited from earlier work

| Substance | IC50 (type I IGF receptor) [nM] | IC50 [1] [nM] | affinity/potency at the type I IGF receptor compared to normal human IGF-I (in words) (type I IGF receptor) | binding to human serum carrier proteins (in words) [1] | binding to rat serum carrier proteins / native binding protein in rat serum (in words) [2] | potency in stimulating DNA synthesis relative to normal/wild-type IGF-I (3T3 cells) [times] | potency in stimulating DNA synthesis relative to wild type IGF-I (3T3 cells) | 125I-peptide bound to the 150 kD species, share of the total in the incubation ([2]; after incubation with rat serum, FIG. 8B) | binding to rat serum carrier proteins / native binding protein in rat serum (in words) ([2]; listed as IGF) | stimulation of lipid synthesis in adipose tissue in vivo (in words) (rat adipose tissue) | share bound to serum carrier proteins in normal human blood (serum carrier proteins; normal human blood) | binding to serum carrier proteins (in words, background observation) (serum carrier proteins) |
| --- | --- | --- | --- | --- | --- | --- | --- | --- | --- | --- | --- | --- |
| GPETLCGAELVDALYL-R1 [IGF122] | 4.5 | 2.1 |  |  |  |  |  |  |  |  |  |  |
| FVNQHLCGSHLVEALYL-R1 [IGF132] | 12 | > 1000 | near equal affinity | greatly reduced binding; also recorded: very weakly bound | greatly reduced binding; also recorded: is not observed; also recorded: only free radioactive peptide is eluted | 10 | about 10 fold |  |  |  |  |  |
| GPETLCGAELVDALQF-R1 [hIGF-I, reference compound] | 5.6 | 0.42 |  | tightly bound | binds in a saturable fashion |  |  | 36%±5% | saturable | Neither IGF-I nor IGF252 stimulate lipid synthesis; also recorded: neither IGF-I nor IGF252 stimulates the incorporation | greater than 99% |  |
| GPQALCGAELVDALQF-R1 [IGF130] | 5.3 | 1.8 |  |  |  |  |  |  |  |  |  |  |
| GPQALCGAELVDALYL-R1 [IGF252] | 5 | 300 |  | very weakly bound |  | 10 | about 10 fold |  |  | Neither IGF-I nor IGF252 stimulate lipid synthesis; also recorded: neither IGF-I nor IGF252 stimulates the incorporation |  |  |
| insulin: insulin; stated not to bind to serum carrier proteins |  |  |  |  |  |  |  |  |  |  |  | does not bind to serum carrier proteins |
